Common to all, as to test: relative viability (nuclei count vs DMSO), 5 days (fraction); higher = more cells survive
Compound in experiment [1]: CS(=O)(=O)c1ccc(-c2cnc(N)c(C(=O)Nc3ccccc3)n2)cc1 [VE-821] + CCNC(=O)c1noc(-c2cc(C(C)C)c(O)cc2O)c1-c1ccc(CN2CCOCC2)cc1 [Luminespib] (partner 0.01 µM)
The method, boiled down:
(§1)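 Relative viability was taken as the ratio of nuclei in treated wells to nuclei in vehicle wells. Lung cancer cell lines in 1536-well plates received compounds by pin tool one day after seeding, either one drug alone or a fixed anchor-drug dose plus five library-drug doses (not always all listed) in √10 steps. Nuclei were counted on 4× images after 5 days of treatment, and values are medians of duplicate plates.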

Compound in experiment [2]: CS(=O)(=O)c1ccc(C(=O)Nc2ccc(Cl)c(-c3ccccn3)c2)c(Cl)c1 [Vismodegib] + CS(=O)(=O)CCNCc1ccc(-c2ccc3ncnc(Nc4ccc(OCc5cccc(F)c5)c(Cl)c4)c3c2)o1 [Lapatinib] (partner 2 µM)
Put shortly: as §1

Compound in experiment [3]: N#CC[C@H](C1CCCC1)n1cc(-c2ncnc3[nH]ccc23)cn1 [Ruxolitinib] + Cc1nc(NC(=O)N2CCC[C@H]2C(N)=O)sc1-c1ccnc(C(C)(C)C(F)(F)F)c1 [Alpelisib] (partner 2 µM)
The method, boiled down:
as §1

Compound in experiment [4]: N#CC[C@H](C1CCCC1)n1cc(-c2ncnc3[nH]ccc23)cn1 [Ruxolitinib] + COc1cc2c(Oc3ccc(NC(=O)C4(C(=O)Nc5ccc(F)cc5)CC4)cc3F)ccnc2cc1OCCCN1CCOCC1 [Foretinib] (partner 0.25 µM)
The method, boiled down: as §1

Data on one cell line can be found in the supplement of paper PMC10307832.

Turning to UMC-11, the relative viability is 1.18 in experiment [1] (first compound 0.08 µM); 0.966 in experiment [1] (first compound 0.253 µM); 0.966 in experiment [1] (first compound 0.8 µM); 1.03 in experiment [1] (first compound 2.53 µM); 0.493 in experiment [1] (first compound 8 µM); 0.915 in experiment [2] (first compound 0.08 µM). Moreover, the relative viability in experiment [2] (first compound 0.253 µM) is 0.971; in experiment [2] (first compound 0.8 µM), 0.893; in experiment [2] (first compound 2.53 µM), 0.974; in experiment [2] (first compound 8 µM), 0.598; in experiment [3] (first compound 0.08 µM), 0.869; in experiment [3] (first compound 0.253 µM), 1.02. The relative viability in experiment [3] (first compound 0.8 µM) is 1.06; in experiment [3] (first compound 2.53 µM), 1.12; in experiment [3] (first compound 8 µM), 0.938; in experiment [4] (first compound 0.08 µM), 1.05; in experiment [4] (first compound 0.253 µM), 1.07; in experiment [4] (first compound 0.8 µM), 1.28. The relative viability in experiment [4] (first compound 2.53 µM) came out at 1.07; in experiment [4] (first compound 8 µM), 1.02.
